In the assay the target is T1, human PDE4B1 (Homo sapiens, UniProt Q07343).
T1 construct: host or cells: Sf9 cells
Description: cAMP HTRF assay to determine the activity of hPDE4B1. The note with it: inhibition of PDE4B at a test concentration of 1 μM; for Inhibition in %: 1 µM. Format: biochemical. The procedure:
Biological Testing cAMP HTRF® Assay to Determine the Activity of hPDE4B1
The inhibiting effect of the compounds on the enzyme activity of human PDE4B1 was measured by the quantification of 5′-adenosine monophosphate (5′-AMP), which is formed from 3′,5′-cyclic adenosine monophosphate (cAMP). Human recombinant enzyme, expressed in Sf9 cells, and the HTRF (homogeneous time-resolved fluorescence) detection method were used in the assay.
The test compound or water (control) was mixed with the human recombinant PDE4B1 enzyme (4.8 U) in a buffer consisting of 44.4 mM tris-HCl, 5.28 mM MgCl2, 2.64 mM DTT and 0.044% Tween 20 (pH 7.8). After adding the cAMP enzyme substrate (final concentration 40 nM), the mixture was incubated for 30 minutes at room temperature. Then a fluorescence acceptor (Dye2 marked with cAMP), a fluorescence donor (anti-cAMP antibody marked with a europium cryptate) and the non-specific phosphodiesterase inhibitor IBMX (3-isobutyl-1-methylxanthine; final concentration 1 mM) were added. After 60 minutes the fluorescence transfer, which correlates with the amount of remaining cAMP, was measured with a microplate reader (Rubystar, BMG) at λex=337 nm, λem=620 nm and λem=665 nm. The enzyme activity was calculated from the quotient formed from the measured signal at 665 nm and that at 620 nm. The result was expressed as the percentage inhibition of enzyme activity of the control (without PDE4 inhibitor). The enzyme was omitted for measurement of the basal control. IC50 values (IC50=concentration causing a half-maximal inhibition of control specific activity) were derived from dose response measurements with eight different concentrations (n=2; N=1-3).
Literature: N. Saldou et al., Comparison of recombinant human PDE4 isoforms: interaction with substrate and inhibitors, Cell. Signal. Vol. 10, No. 6, 427-440, 1998

26 compounds from patent US9315490B2, “2,5-substituted pyrimidines” (Grünenthal GmbH, priority 2014, dated 2016) can be followed below.

T1 sequence (Q07343 whole entry): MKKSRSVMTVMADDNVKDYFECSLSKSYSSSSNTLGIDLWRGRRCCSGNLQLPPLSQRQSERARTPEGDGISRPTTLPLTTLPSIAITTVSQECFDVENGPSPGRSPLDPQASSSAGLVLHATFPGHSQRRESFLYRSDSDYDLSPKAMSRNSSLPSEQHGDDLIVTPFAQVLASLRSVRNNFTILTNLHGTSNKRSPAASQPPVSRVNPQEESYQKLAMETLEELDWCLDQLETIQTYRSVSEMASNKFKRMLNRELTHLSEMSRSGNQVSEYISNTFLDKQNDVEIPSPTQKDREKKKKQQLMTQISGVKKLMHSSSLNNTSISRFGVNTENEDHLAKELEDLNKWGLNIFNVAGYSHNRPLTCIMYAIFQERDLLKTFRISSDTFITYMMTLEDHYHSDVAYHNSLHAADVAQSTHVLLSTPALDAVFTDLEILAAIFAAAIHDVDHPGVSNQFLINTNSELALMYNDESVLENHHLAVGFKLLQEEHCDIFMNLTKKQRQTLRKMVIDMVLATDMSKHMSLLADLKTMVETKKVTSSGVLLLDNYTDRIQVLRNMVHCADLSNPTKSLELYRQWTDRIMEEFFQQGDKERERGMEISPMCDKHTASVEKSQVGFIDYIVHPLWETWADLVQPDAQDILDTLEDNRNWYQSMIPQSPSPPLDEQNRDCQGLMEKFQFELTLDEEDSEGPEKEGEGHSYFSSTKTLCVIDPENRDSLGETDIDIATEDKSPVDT

By inhibition is commonly meant the drop in the measured response relative to a control, in per cent. On to `COC(=O)C1CCN(C(=O)c2ccc3c([S+](C)[O-])cn(-c4ncc(-c5ccccc5F)cn4)c3c2)C1` (centres unmarked) [Example 388, Methyl 1-(1-(5-(2-fluorophenyl)pyrimidin-2-yl)-3-(methylsulfinyl)-1H-indole-6-carbonyl)pyrrolidine-3-carboxylate], for which the inhibition at 1 µM came to 45%.

As for `CN1CCN(C(=O)c2ccc3c([S+](C)[O-])cn(-c4ncc(-c5ccccc5F)cn4)c3c2)CC1=O` (centres unmarked) [Example 76, 4-(1-(5-(2-Fluorophenyl)pyrimidin-2-yl)-3-(methylsulfinyl)-1H-indole-6-carbonyl)-1-methylpiperazin-2-one], the inhibition at 1 µM came to 58%.

Take `C[S+]([O-])c1cn(-c2ncc(-c3ccccc3F)cn2)c2cc(C(=O)N3CC4CC3CN4)ccc12` (centres unmarked) [Example 175, 2,5-Diazabicyclo[2.2.1]heptan-2-yl(1-(5-(2-fluorophenyl)pyrimidin-2-yl)-3-(methylsulfinyl)-1H-indol-6-yl)methanone]: the inhibition at 1 µM was 114%.

`COC[C@H]1CCCN1C(=O)c1ccc2c([S+](C)[O-])cn(-c3ncc(-c4ccccc4F)cn3)c2c1` (stereo partly drawn) [Example 77, (1-(5-(2-Fluorophenyl)pyrimidin-2-yl)-3-(methylsulfinyl)-1H-indol-6-yl)((R)-2-(methoxymethyl)pyrrolidin-1-yl)methanone]: the inhibition at 1 µM worked out at 67%.

Regarding `C[S+]([O-])c1cn(-c2ncc(-c3cccc(F)c3F)cn2)c2cc(C(=O)N3CCOCC3)ccc12` (centres unmarked) [Example 30, (1-(5-(2,3-Difluorophenyl)pyrimidin-2-yl)-3-(methylsulfinyl)-1H-indol-6-yl)(morpholino)methanone], the inhibition at 1 µM is 106%.

On to `C[S+]([O-])c1cn(-c2ncc(-c3ccccc3F)cn2)c2cc(C(=O)N3CC[C@H](O)C3)ccc12` (stereo partly drawn) [Example 67, (1-(5-(2-Fluorophenyl)pyrimidin-2-yl)-3-(methylsulfinyl)-1H-indol-6-yl)((S)-3-hydroxypyrrolidin-1-yl)methanone], for which the inhibition at 1 µM worked out at 47%.

As for `CCC1CCCCN1C(=O)c1ccc2c([S+](C)[O-])cn(-c3ncc(-c4ccccc4F)cn3)c2c1` (centres unmarked) [Example 371, (2-Ehylpiperidin-1-yl)(1-(5-(2-fluorophenyl)pyrimidin-2-yl)-3-(methylsulfinyl)-1H-indol-6-yl)methanone], the inhibition at 1 µM came out at 32%.

`C[S+]([O-])c1cn(-c2ncc(-c3ccccc3F)cn2)c2cc(C(=O)N3C[C@@H]4CCN[C@@H]4C3)ccc12` (stereo partly drawn) [Example 242, (1-(5-(2-Fluorophenyl)pyrimidin-2-yl)-3-(methylsulfinyl)-1H-indol-6-yl)((3aS,6aS)-hexahydropyrrolo[3,4-b]pyrrol-5(1H)-yl)methanone]: the inhibition at 1 µM is 66%.

For the compound `CC1CC(C)CN(C(=O)c2ccc3c([S+](C)[O-])cn(-c4ncc(-c5ccccc5F)cn4)c3c2)C1` (single isomer, unassigned) [Example 373, (3,5-Dimethylpiperidin-1-yl)(1-(5-(2-fluorophenyl)pyrimidin-2-yl)-3-(methylsulfinyl)-1H-indol-6-yl)methanone], the Inhibition in % worked out at 36%.

For the compound `COc1cccc(-c2cnc(-n3cc([S+](C)[O-])c4ccc(C(=O)N5CCNC(=O)C5)cc43)nc2)c1` (single isomer, unassigned) [Example 217, 4-(1-(5-(3-Methoxyphenyl)pyrimidin-2-yl)-3-(methylsulfinyl)-1H-indole-6-carbonyl)piperazin-2-one], the inhibition at 1 µM amounted to 109%.

As for `CN(C)[C@@H]1CCN(C(=O)c2ccc3c([S+](C)[O-])cn(-c4ncc(-c5ccccc5F)cn4)c3c2)C1` (stereo partly drawn) [Example 374, ((R)-3-(Dimethylamino)pyrrolidin-1-yl)(1-(5-(2-fluorophenyl)-pyrimidin-2-yl)-3-(methylsulfinyl)-1H-indol-6-yl)methanone], the inhibition at 1 µM came out at 47%.

Turning to `CS(=O)(=O)c1cn(-c2ncc(-c3ccccc3)cn2)c2cc(C(=O)N3C[C@@H]4C[C@H]3CN4)ccc12` [Example 236, (1S,4S)-2,5-Diazabicyclo[2.2.1]heptan-2-yl(3-(methylsulfonyl)-1-(5-phenylpyrimidin-2-yl)-1H-indol-6-yl)methanone], the inhibition at 1 µM is 85%.

Take `Cc1cccc(-c2cnc(-n3cc(S(C)(=O)=O)c4ccc(C(=O)N5CCOCC5)cc43)nc2)c1` [Example 156, (3-(Methylsulfonyl)-1-(5-(m-tolyl)pyrimidin-2-yl)-1H-indol-6-yl)(morpholino) methanone]: the inhibition at 1 µM came out at 58%.

On to `Cc1cccc(-c2cnc(-n3cc([S+](C)[O-])c4ccc(C(=O)N5CCNC(=O)C5)cc43)nc2)c1` (single isomer, unassigned) [Example 215, 4-(3-(Methylsulfinyl)-1-(5-(m-tolyl)pyrimidin-2-yl)-1H-indole-6-carbonyl)piperazin-2-one], for which the inhibition at 1 µM is 110%.

Turning to `CNC(=O)c1ccc2c([S+](C)[O-])cn(-c3ncc(-c4ccccc4F)cn3)c2c1` (centres unmarked) [Example 61, 1-(5-(2-Fluorophenyl)pyrimidin-2-yl)-N-methyl-3-(methylsulfinyl)-1H-indole-6-carboxamide], the inhibition at 1 µM was found to be 77%.

Consider `CN1CCCN(C(=O)c2ccc3c([S+](C)[O-])cn(-c4ncc(-c5ccccc5F)cn4)c3c2)CC1` (centres unmarked) [Example 376, (1-(5-(2-Fluorophenyl)pyrimidin-2-yl)-3-(methylsulfinyl)-1H-indol-6-yl)(4-methyl-1,4-diazepan-1-yl)methanone], for which the inhibition at 1 µM came to 31%.

`COc1ccc(F)c(-c2cnc(-n3cc([S+](C)[O-])c4ccc(C(=O)N5CCNC(=O)C5)cc43)nc2)c1` (single isomer, unassigned) [Example 213, 4-(1-(5-(2-Fluoro-5-methoxyphenyl)pyrimidin-2-yl)-3-(methylsulfinyl)-1H-indole-6-carbonyl)piperazin-2-one]: the inhibition at 1 µM came out at 106%.

In turn, `COC1CCN(C(=O)c2ccc3c([S+](C)[O-])cn(-c4ncc(-c5ccccc5F)cn4)c3c2)CC1` (centres unmarked) [Example 72, (1-(5-(2-Fluorophenyl)pyrimidin-2-yl)-3-(methylsulfinyl)-1H-indol-6-yl)(4-methoxypiperidin-1-yl)methanone] displayed an Inhibition in % of 33%.

`Cc1cccc(-c2cnc(-n3cc([S+](C)[O-])c4ccc(C(=O)N5CCOCC5)cc43)nc2)c1` (single isomer, unassigned) [Example 155, (3-(Methylsulfinyl)-1-(5-(m-tolyl)pyrimidin-2-yl)-1H-indol-6-yl)(morpholino)methanone] registered an Inhibition in % of 97%.

As for `C[S+]([O-])c1cn(-c2ncc(-c3ccccc3F)cn2)c2cc(C(=O)N3CCCOCC3)ccc12` (centres unmarked) [Example 60, (1-(5-(2-Fluorophenyl)pyrimidin-2-yl)-3-(methylsulfinyl)-1H-indol-6-yl)(1,4-oxoazepan-4-yl)methanone], the inhibition at 1 µM was 79%.

As for `C[S+]([O-])c1cn(-c2ncc(-c3ccccc3F)cn2)c2cc(C(=O)N3CCCCC3)ccc12` (centres unmarked) [Example 358, (1-(5-(2-Fluorophenyl)pyrimidin-2-yl)-3-(methylsulfinyl)-1H-indol-6-yl)(piperidin-1-yl)methanone], the inhibition at 1 µM is 98%.

As to `C[S+]([O-])c1cn(-c2ncc(-c3ccccc3)cn2)c2cc(C(=O)N3CCOCC3)ccc12` (single isomer, unassigned) [Example 163, (3-(Methylsulfinyl)-1-(5-phenylpyrimidin-2-yl)-1H-indol-6-yl)(morpholino)methanone], the inhibition at 1 µM is 104%.

For the compound `C[S+]([O-])c1cn(-c2ncc(-c3cccc(C(N)=O)c3)cn2)c2cc(C(=O)N3CCOCC3)ccc12` (centres unmarked) [Example 35, 3-(2-(3-(Methylsulfinyl)-6-(morpholine-4-carbonyl)-1H-indol-1-yl)pyrimidin-5-yl)benzamide], the inhibition at 1 µM came to 67%.

`CC1CN(C(=O)c2ccc3c([S+](C)[O-])cn(-c4ncc(-c5ccccc5F)cn4)c3c2)CC(C)O1` (single isomer, unassigned) [Example 377, (2,6-Dimethylmorpholino)(1-(5-(2-fluorophenyl)pyrimidin-2-yl)-3-(methylsulfinyl)-1H-indol-6-yl)methanone]: the Inhibition in % is reported as 70%.

`Cc1ccc(-c2cnc(-n3cc([S+](C)[O-])c4ccc(C(=O)N5CCOCC5)cc43)nc2)cc1` (centres unmarked) [Example 46, (3-(Methylsulfinyl)-1-(5-(p-tolyl)pyrimidin-2-yl)-1H-indol-6-yl)(morpholino)methanone]: the inhibition at 1 µM stood at 102%.

As to `C[S+]([O-])c1cn(-c2ncc(-c3ccccc3F)cn2)c2cc(C(=O)N3CCOCC3)ccc12` (single isomer, unassigned) [Example 166, (1-(5-(2-Fluorophenyl)pyrimidin-2-yl)-3-(methylsulfinyl)-1H-indol-6-yl)(morpholino)methanone], the Inhibition in % was found to be 93%.
